Series [1] has as its system OVCAR3 cells. As to the kind of experiment: Cancer cell line proliferation assay, nuclear count, OVCAR3 (CCNE1-amplified). The series is classed as cell-based. As to conditions: banded; for Selectivity ratio KYSE30 GI50 vs. OVCAR3 GI50: >N = at least in this band; for GI50: Homo sapiens, OVCAR-3, CCNE1-amplified ovarian cancer, nuclear count. The procedure:
(§1) h-TERT-RPE1 TP53−/− and CCNE1 high expressing clones (clone cell lines 7 and 15) were treated with test compounds dissolved in DMSO at serially diluted concentrations alongside a DMSO only control for around 6 population doublings time. Cells were then fixed with 4% Paraformaldehyde and the cell nuclei were stained with DAPI (Sigma D9542). Images covering each well were acquired by an Opera Phenix® High-Content Screening System (PerkinElmer). Image analysis was performed using Harmony® high-content analysis software (PerkinElmer). Data analysis was performed using Microsoft Excel® and GI50 estimates generated with GraphPad Prism v9. Percent nuclear count was compared to vehicle control wells and used to measure inhibition of proliferation.
(§2) Cancer cell lines with either normal (KYSE-30) or amplified CCNE1 expression (OVCAR3-ovarian cancer) were evaluated for their sensitivity to PKMYT1 inhibitors in a nuclear count assay as described above for h-TERT-RPE1 TP53−/− and a CCNE1 high expressing clones, taking into account the slower cell cycle division times of these lines.

The target of series [2] is T1, Human PKMYT1 (Homo sapiens, UniProt Q99640).
T1 construct: Human PKMYT1 75-362 was cloned as a TEV cleavable 6xHis fusion; 6xHis (TEV cleavable) (cleaved yes); made in house; host or cells: bacterial cells
T1 sequence (Q99640 75-362): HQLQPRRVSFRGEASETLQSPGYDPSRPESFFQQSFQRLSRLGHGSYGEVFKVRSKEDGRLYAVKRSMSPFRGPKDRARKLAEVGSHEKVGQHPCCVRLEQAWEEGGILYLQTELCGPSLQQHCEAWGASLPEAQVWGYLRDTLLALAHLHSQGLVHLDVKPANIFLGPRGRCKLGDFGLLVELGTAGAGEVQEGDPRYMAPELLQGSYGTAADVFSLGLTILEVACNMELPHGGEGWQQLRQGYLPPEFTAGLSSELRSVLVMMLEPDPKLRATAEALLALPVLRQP
As to the kind of experiment: PKMYT1 biochemical ADP-Glo enzymatic assay. As to conditions: ADP-Glo; 15 nM PKMYT1 kinase domain, 500 µM ATP, 60 minutes at 26° C.; banded. An outline of the steps:
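Luminescent ADP-Glo Max read-out of ADP produced by 15 nM PKMYT1 (residues 75-362, bacterial, His-tag removed) from 500 µM ATP without peptide substrate. Reaction: 50 mM HEPES pH 7.5, 10 mM MgCl2, 1 mM EGTA, 0.01% Brij-35, 60 min, 26 °C. IC50 values fitted from 10-point curves.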

The target in series [3] is T2, WEE1 (Homo sapiens, UniProt P30291).
T2 construct: purchased Thermo Fisher PR7373A
T2 sequence (P30291 whole entry): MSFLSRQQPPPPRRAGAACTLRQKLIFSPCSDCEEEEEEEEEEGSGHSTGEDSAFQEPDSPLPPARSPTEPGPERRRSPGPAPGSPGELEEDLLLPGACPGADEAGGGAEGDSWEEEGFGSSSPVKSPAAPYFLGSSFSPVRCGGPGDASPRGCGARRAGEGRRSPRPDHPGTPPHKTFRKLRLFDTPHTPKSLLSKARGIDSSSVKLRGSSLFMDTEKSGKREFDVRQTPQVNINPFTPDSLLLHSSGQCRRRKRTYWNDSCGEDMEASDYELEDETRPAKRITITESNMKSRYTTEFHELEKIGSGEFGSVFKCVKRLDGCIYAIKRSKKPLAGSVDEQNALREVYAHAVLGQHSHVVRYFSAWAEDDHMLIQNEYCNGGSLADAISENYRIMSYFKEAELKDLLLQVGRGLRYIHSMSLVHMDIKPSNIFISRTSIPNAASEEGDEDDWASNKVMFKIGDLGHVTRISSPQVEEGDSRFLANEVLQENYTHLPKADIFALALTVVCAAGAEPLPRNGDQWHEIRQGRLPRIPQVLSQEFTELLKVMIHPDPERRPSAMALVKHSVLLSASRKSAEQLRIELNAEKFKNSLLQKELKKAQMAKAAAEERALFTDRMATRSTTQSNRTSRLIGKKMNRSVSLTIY
As to the kind of experiment: Selectivity versus WEE1 assay (ADP-Glo enzymatic assay). The series is classed as biochemical. The note with it: banded; for IC50: ADP-Glo, 15 nM WEE1, 60 minutes at 26° C.; for PKMYT1 vs. WEE1 selectivity: fold difference in selectivity for PKMYT1 over WEE1, ">N" = at least in this band but could be higher. An outline of the steps: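 ADP-Glo luminescence read-out after a 60 min reaction at 26° C, initiated by 30 µM ATP, with 15 nM enzyme in HEPES pH 7.5/MgCl2/EGTA/Brij-35 buffer containing 1% DMSO. Replicate IC50 values had to agree within 3-fold and fits needed r2 >0.9.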

Series [4] deals with h-TERT-RPE1 TP53−/− CCNE1 high expressing clone cell line 15 (CL15). Put plainly: Nuclear count cell proliferation assay, CCNE1 high expressing clone cell line 15 (CL15) of h-TERT-RPE1 TP53−/−. It is filed as cell-based. As to conditions: banded; for Selectivity Ratio Wt vs. CL15: GI50 ratio RPE Wt vs. CL15, >N = at least in this band; for GI50: h-TERT-RPE1 TP53−/− CCNE1 high clone CL15, nuclear count, around 6 population doublings, read-out: RPE CL15 GI50. As for the experimental part: as §1

Series [5] has as its system KYSE-30 cells. Put plainly: Cancer cell line proliferation assay, nuclear count, KYSE-30 (normal CCNE1). As to conditions: Homo sapiens, normal CCNE1 expression, banded, read-out: KYSE30 GI50. The series is classed as cell-based. The procedure:
as §1, §2

The subject of series [6] is h-TERT-RPE1 TP53−/− CCNE1 high expressing clone cell line 7 (CL7). As to the kind of experiment: Nuclear count cell proliferation assay, CCNE1 high expressing clone cell line 7 (CL7) of h-TERT-RPE1 TP53−/−. As to conditions: banded; for Selectivity Ratio Wt vs. CL7: GI50 ratio RPE Wt vs. CL7, >N = at least in this band; for GI50: hTERT-RPE1, h-TERT-RPE1 TP53−/− CCNE1 high clone CL7, nuclear count, around 6 population doublings, read-out: RPE CL7 GI50. The series is classed as cell-based. As for the experimental part:
as §1

For series [7], the system named is h-TERT-RPE1 TP53−/− parental cells. Put plainly: Nuclear count cell proliferation assay, parental (wild type) h-TERT-RPE1 TP53−/− cells. The series is classed as cell-based. As to conditions: hTERT-RPE1, h-TERT-RPE1 TP53−/− parental (Wt), around 6 population doublings, banded, read-out: RPE Wt GI50. The procedure: as §1
For series [8], the system named is solid tumours. As to conditions: clinicaltrials.gov; cited from earlier work.
Series [9] deals with pancreatic PDX model with increased expression of CCNE1. The note with it: alone or in combination with Gemcitabine; Gallo et al., 2022; cited from earlier work.
Series [10] has as its system breast and ovarian cancers overexpressing CCNE1. As to conditions: alone or in combination with Gemcitabine; Gallo et al., 2022; cited from earlier work.

Broadly, the GI50 is the concentration that inhibits growth by half. In general, IC50 refers to the concentration that gives 50% inhibition. Consider `Cc1ccc(O)c(C)c1NC(=O)c1cnc(Nc2ccn(CC(=O)N3CC(F)(F)C(F)(F)C3)n2)s1` [BAA-181, N-(3-hydroxy-2,6-dimethyl-phenyl)-2-[[1-[2-oxo-2-(3,3,4,4-tetrafluoropyrrolidin-1-yl)ethyl]pyrazol-3-yl]amino]thiazole-5-carboxamide], for which the “Selectivity ratio KYSE30 GI50 vs. OVCAR3 GI50” value in series [1] is recorded as “>X (3-<10 fold)”. For the same molecule, the GI50 is 3 to 10 µM in [1]; < 0.5 µM in [4]; > 10 µM in series [5]; < 0.5 µM in series [6]; 0.5 to 3 µM in [7]. Also, the IC50 in series [2] is < 0.05 µM; in [3], > 11 µM. Also, in series [3], the “PKMYT1 vs. WEE1 selectivity” value is listed as “Y (1000-5000 fold)”. In series [4], the “Selectivity Ratio Wt vs. CL15” value is “Y (10-30 fold)”. In series [6], the “Selectivity Ratio Wt vs. CL7” value is “X (3-<10 fold)”.

As to `Cc1ccc(O)c(C)c1NC(=O)c1cnc(Nc2ccn(CC(=O)N3CCCC3)n2)s1` [BAA-148, N-(3-hydroxy-2,6-dimethyl-phenyl)-2-[[1-(2-oxo-2-pyrrolidin-1-yl-ethyl)pyrazol-3-yl]amino]thiazole-5-carboxamide], in series [1], the “Selectivity ratio KYSE30 GI50 vs. OVCAR3 GI50” value is reported as “X (3-<10 fold)”. Besides, the concentration for 50% growth inhibition (GI50) is 3 to 10 µM in series [1], 0.5 to 3 µM in series [4], > 10 µM in [5] and 0.5 to 3 µM in series [7]. Besides, the figures for the half-maximal inhibitory concentration (IC50) in series [2] and in [3] were < 0.05 µM and > 11 µM, respectively. Moreover, in series [3], the “PKMYT1 vs. WEE1 selectivity” value was “Y (1000-5000 fold)”. Also, the “Selectivity Ratio Wt vs. CL15” value in series [4] was “X (3-<10 fold)”.

Consider `CCN(CC)C(=O)Cn1ccc(Nc2ncc(C(=O)Nc3c(C)ccc(O)c3C)s2)n1` [BAA-173, 2-[[1-[2-(diethylamino)-2-oxo-ethyl]pyrazol-3-yl]amino]-N-(3-hydroxy-2,6-dimethyl-phenyl)thiazole-5-carboxamide], for which the “Selectivity ratio KYSE30 GI50 vs. OVCAR3 GI50” value in series [1] is given as “>X (3-<10 fold)”. The GI50 in series [1] is 3 to 10 µM; in series [5], > 10 µM; in series [6], < 0.5 µM; in [7], 0.5 to 3 µM. Besides, the 50% inhibitory concentration (IC50) in [2] is < 0.05 µM; in [3], > 11 µM. For the same molecule, the “PKMYT1 vs. WEE1 selectivity” value in [3] is listed as “Y (1000-5000 fold)”. The “Selectivity Ratio Wt vs. CL7” value in [6] is reported as “X (3-<10 fold)”.

As to `C=CCn1c(=O)c2cnc(Nc3ccc(N4CCN(C)CC4)cc3)nc2n1-c1cccc(C(C)(C)O)n1` [adavosertib], the “toxicity in clinical trials” value in series [8] is given as “presented significant toxicity”.

Consider `Cc1ccc(O)c(C)c1NC(=O)c1cnc(Nc2ccn(CC(=O)N3CCN(C(=O)OC(C)(C)C)C(C)(C)C3)n2)s1` [BAA-179, tert-butyl 4-[2-[3-[[5-[(3-hydroxy-2,6-dimethyl-phenyl)carbamoyl]thiazol-2-yl]amino]pyrazol-1-yl]acetyl]-2,2-dimethyl-piperazine-1-carboxylate], for which the “Selectivity ratio KYSE30 GI50 vs. OVCAR3 GI50” value in series [1] is “Z (>30 fold)”. The GI50 was < 0.5 µM in series [1], < 0.5 µM in [4], > 10 µM in [5] and 3 to 10 µM in series [7]. The 50% inhibitory concentration (IC50) was < 0.05 µM in series [2] and 1 to 11 µM in [3]. Also, in series [3], the “PKMYT1 vs. WEE1 selectivity” value is listed as “X (100-<1000 fold)”. The “Selectivity Ratio Wt vs. CL15” value in [4] was “Y (10-30 fold)”.

For `Cc1cc2c(C(N)=O)c(N)n(-c3c(C)ccc(O)c3C)c2nc1C` [RP-6306], the efficacy in vivo entry in series [9] and in [10] was “has shown efficacy in vivo” in each case.

These data come from patent US20260297042A1, “BIARYLAMIDE DERIVATIVES AND THEIR USE AS PKMYT1 INHIBITORS” (CANCER RESEARCH TECHNOLOGY LIMITED, priority 2023, published 2026).
